# Experiments:
# [1] = solubility as noted during extraction and precipitation; assay type: physicochemical; conditions: pH 12-13
# Description: Purification and concentration of GA was achieved using chloroform. The chloroform extract contained a complex mixture of substances, including carotenoids and carboxylic acids.
# Indeed, addition of hexanes to an ethyl acetate extract of carrot powder #1 yielded a brown precipitate. Redissolving the recovered solid in ethyl acetate and precipitating again with hexanes and repeating the procedure gave a brown solid, which, at ca. 0.7 mg/g, was about 1.4 times the estimated OxPVA level, well within the anticipated range for the GA-based estimate (see Isolated Polymer and Polymer/OxPVA columns in Table 2). A similar ratio (1.6) was found for carrot powder #2, for which the yield of copolymer was around half that of carrot powder #1, in line with the respective relative amounts of GA. Confirmation that the isolated solid is largely composed of carotenoid-oxygen copolymer products was provided by comparison of elemental composition, IR, UV-Vis, GPC and GC-MS thermal decomposition data with the corresponding data for the OxBC polymer.
# prostate carcinogenesis = conditions: rat model of prostate carcinogenesis; cited from earlier work
SMILES,solubility in water [1],inhibition of prostate carcinogenesis (prostate carcinogenesis)
"CC(=O)CCCC(C)(C)C(=O)O [GA, geronic acid]",soluble in water,
CC(C)=CCC/C(C)=C/C=C/C(C)=C/C=C/C(C)=C/C=C/C=C(C)/C=C/C=C(C)/C=C/C=C(\C)CCC=C(C)C [lycopene],,not lycopene alone inhibited carcinogenesis

# From patent publication US20190054135A1, “PLANT OR MICROORGANISM-DERIVED CAROTENOID-OXYGEN COPOLYMER COMPOSITIONS, METHODS OF IDENTIFYING, QUANTIFYING AND PRODUCING SAME AND USES THEREOF” (Avivagen Inc., priority 2016, published 2019)
